Assay results: patent US20190358348A1, “CHARACTERIZATION OF BIOLOGICAL TISSUES AT A CELLULAR LEVEL USING RED AND FAR-RED FLUORESCENT DYES” (IGR-Institut Gustave Roussy, priority 2012, published 2019)
Where two headings read alike, the source gives them in different places.

How the values were obtained:
[1] = cited from earlier work
[2] = tested on: popliteal and/or inguinal lymph node
[3] = macroscopic guidance of diagnostic procedures

Row | SMILES | side effects for the patients [1, 3] | further results
1 | Cc1cc2nc3ccc(N(C)C)cc3[s+]c2cc1N.[Cl-] [TB, Toluidine Blue] | very limited side effects | time to macroscopically visible diffusion of dye to the lymph node ([2]; sub-cutaneous injection, 100 μL into footpad): 5 min
2 | Cc1cc(O)c2c(=O)c3c(O)cc(O)c4c5c(O)cc(O)c6c(=O)c7c(O)cc(C)c8c1c2c(c34)c(c78)c65 [hypericin, Hypericin] | very limited side effects | 
3 | CCN(CC)c1ccc(C(=C2C=CC(=[N+](CC)CC)C=C2)c2cc(O)c(S(=O)(=O)[O-])cc2S(=O)(=O)[O-])cc1.[Na+] [PB, sodium patent blue V] |  | side effects for the patients ([1]; human, in vivo): very limited side effects; time to macroscopically visible diffusion of dye to the lymph node ([2]; rat, in vivo): 5 min
4 | CC1(C)C(/C=C/C=C/C=C/C=C2\N(CCCCS(=O)(=O)O)c3ccc4ccccc4c3C2(C)C)=[N+](CCCCS(=O)(=O)[O-])c2ccc3ccccc3c21 [ICG, Indocyanine green] | very limited side effects | 
5 | CN(C)c1ccc2nc3ccc(=[N+](C)C)cc-3sc2c1 [MB, Methylene blue] | very limited side effects | time to macroscopically visible diffusion of dye to the lymph node ([2]; male, Wistar, rat, in vivo): 5 min
